Test results: patent US4931457A, “Naphthylamino-and naphthyloxy-pyridinamine comounds useful as topical antiinflammatory agents for the treatment of skin disorders” (Hoechst-Roussel Pharmaceuticals Inc., priority 1989, dated 1990)
Counter-ions that a name gives are not always drawn. Like-named read-outs stand apart in the source and are kept apart here.

Key:
[1] = system: mouse ear edema induced by topical application of arachidonic acid; assay: Arachidonic Acid-Induced Ear Edema (AAEE); type: in vivo, Female Swiss Webster mice; settings: for AAEE, ear edema: 1 mg (1.0 mg/ear), arachidonic acid 4 mg/ear
Procedure: The purpose of this assay was to determine the ability of a topically-applied compound to prevent mouse ear edema induced by topical application of arachidonic acid. Female Swiss Webster mice topically received vehicle or test compound (1.0 mg/ear) on both ears (10 μl on outer and inner ears). After 30 minutes, the right ear of all groups received arachidonic acid (4 mg/ear) and the left ear received vehicle alone. After an additional 1 hour, the mice were sacrificed and an ear punch (4 mm) was taken from each ear. The difference in right and left ear punch weights for each animal was determined to assess activity. […] See Young, J. M. et al., Invest. Dermatol., 80, (1983), pp 48-52.

porcine pancreatic PLA2 = porcine pancreatic PLA2 (Sus scrofa, UniProt P00592); assay: biochemical
porcine pancreatic PLA2, sequence (P00592 23-146): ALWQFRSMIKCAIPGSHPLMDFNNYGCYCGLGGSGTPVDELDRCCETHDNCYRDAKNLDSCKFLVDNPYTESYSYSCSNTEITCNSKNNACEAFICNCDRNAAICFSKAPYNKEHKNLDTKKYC
Procedure: The ability of a compound to modulate PLA2 activity (cleavage of ^14 C-dipalmitoyl phosphotidylcholine at the 2-position to ^14 C-palmitic acid) was quantitated in this assay. The reaction mixture contained Tris buffer (25 mM), pH 8.0, calcium chloride (2.0 mM), bovine serum albumin (0.5 mg), dipalmitoyl phosphotidylcholine (8×10^-5M), (^14 C-palmitoyl)dipalmitoyl phosphotidylcholine (6×10^3cpm), porcine pancreatic PLA2 (3.2 units) and the test compound. The reaction was run at 37° C. in a shaking incubator. The reaction was quenched and an internal standard was added in order to determine sample recovery. The samples were loaded onto C18 columns, eluted with ethanol, and the radioactivity was then measured. […] See Feyen, J. H. M., et al., Journal of Chromatography 259 (1983), pp. 338-340.

[2] = system: naja naja (snake venom) phospholipase A2 -induced paw edema; assay: Phospholipase A2-induced Paw Edema (PIPE); type: in vivo, male Wistar rats; settings: 0.1 M; injected with PLA2 (3 units/paw) in subplantar region of rat left hindpaw; two hours
Procedure: The ability of compounds to prevent naja naja (snake venom) phospholipase A2 -induced paw edema in male Wistar rats (100-125 g) was measured. PLA2 (3 units/paw) alone or with 0.1M of the test compound was injected in the subplantar region of the rat left hindpaw. Immediately subsequent to the injection and at two hours post administration the paw was immersed in a mercury bath, and paw displacement was measured on a recorder via a transducer. […] See Giessler, A. J. et al., Agents and Actions, Vol. 10, Trends in Inflammation Research (1981), p. 195.

[3] = system: ear edema induced by topical application of TPA (phorbol 12-myristate acetate); assay: TPA-Induced Ear Edema (TPAEE); type: in vivo, Female Swiss Webster mice; settings: for TPAEE, ear edema: 10 μg (10 μg/ear), TPA 10 μg/ear, five hours
Procedure: The purpose of this assay was to determine the ability of a topically-applied compound to prevent ear edema induced by topical application of TPA (phorbol 12-myristate acetate). Female Swiss Webster mice topically received TPA (10 μg/ear) on the right ear and vehicle on the left ear. The test compound (10 μg/ear) was applied to both ears. After five hours, the animals were sacrificed and an ear punch (4 mm) was taken from each ear. The difference in right and left ear punch weights for each animal was determined to assess activity. […] See Young, J. M. et al., J. Invest. Dermatol., 80 (1983), pp. 48-52.

[4] = system: epidermal DNA synthesis (proliferation of skin); assay: Epidermal DNA Synthesis (in vivo DNA); design: species or system HRS/J hairless mice; settings: Standard; topical, 24 hours, 3H-thymidine incorporation
Procedure: The influence of compounds on the proliferation of skin was assessed by determining inhibition or stimulation of DNA synthesis. HRS/J hairless mice received topical application of a compound or vehicle alone on the dorsal aspect. After 24 hours, ^3 H-thymidine (25 μCi) was administered by intraperitoneal injection. After an additional hour, animals were sacrificed and the dorsal skin was removed. The epidermal layer was peeled from the dermis by heat separation. Unincorporated ^3 H-thymidine was removed by washing successively with trichloroacetic acid and ethanol. Samples were centrifuged at 2,000 rpm and supernatants discarded. The epidermal sheets were then extracted with warm trichloroacetic acid and the supernatants analyzed for ^3 H-thymidine incorporation by total DNA by a standard colorimetric assay. […] See Lowe, N. J., et at., Arch. Dermatol., 117 (1981), pp. 394-8; and Burton, K., Biochem. J. 62 (1956), pp. 315-22.

[5] = system: cultured human epidermal keratinocytes; assay: Cultured Human Keratinocyte DNA Synthesis (in vitro DNA); type: cell-based; settings: Standard, 24 hours incubation, 3H-thymidine incorporation
Procedure: The effect of a compound on the proliferation of cultured human epidermal keratinocytes was measured. After incubation with a test compound for 24 hours, the cultures were pulse-labelled for three hours with 5 μCi of ^3 H-thymidine. The cultures were extracted for DNA successively with trichloroacetic acid and ethanol, and thereafter dissolved with NaOH. The radioactive incorporation of ^3 H-thymidine into DNA was determined.

[6] = 0.01 M, in vitro, pH 8.0, 37° C., read-out: PLA2, difference vs. control
[7] = pH 8, read-out: PLA2, difference vs. control

O=[N+]([O-])c1cc[n+]([O-])cc1Oc1cccc2ccccc12 [3-(1-Naphthyloxy)-4-nitropyridine-N-oxide]
AAEE, ear edema [1]: -27%

Nc1ccncc1Oc1cccc2ccccc12 [3-(1-Naphthyloxy)-4-pyridinamine]
inhibition at 10000 µM (porcine pancreatic PLA2; [6]): 54% | PIPE, difference in edema vs. control [2]: -60% | AAEE, ear edema [1]: -66%

Nc1ccncc1Oc1ccc2ccccc2c1 [3-(2-Naphthyloxy)-4-pyridinamine]
AAEE, ear edema [1]: -59%

O=[N+]([O-])c1cc[n+]([O-])cc1Oc1ccc(Cl)c2ccccc12 [3-(4-Chloro-1-naphthyloxy)-4-nitropyridine-N-oxide]
TPAEE, ear edema [3]: -41%

Nc1ccncc1Oc1ccc(Cl)c2ccccc12 [3-(4-Chloro-1-naphthyloxy)-4-pyridinamine oxalate]
inhibition at 10000 µM (porcine pancreatic PLA2; [7]): 110%

COc1ccc(Oc2cnccc2N)c2ccccc12 [3-(4-Methoxy-1-naphthyloxy)-4-pyridinamine]
PIPE, difference in edema vs. control [2]: -40%

Nc1ccncc1Oc1cccc2c1CCCC2 [3-(5,6,7,8-Tetrahydro-1-naphthyloxy)-4-pyridinamine hydrochloride]
inhibition at 10000 µM (porcine pancreatic PLA2; [7]): 110%

O=[N+]([O-])c1cc[n+]([O-])cc1Oc1ccc2cc(Br)ccc2c1 [3-(6-Bromo-2-naphthyloxy)-4-nitropyridine-N-oxide]
TPAEE, ear edema [3]: -43%

O=[N+]([O-])c1cnccc1Oc1cccc2ccccc12 [4-(1-Naphthyloxy)-3-nitropyridine]
TPAEE, ear edema [3]: -72%

Cl.Nc1cnccc1Oc1cccc2ccccc12 [4-(1-Naphthyloxy)-3-pyridinamine hydrochloride]
TPAEE, ear edema [3]: -40%

O=[N+]([O-])c1cc[n+]([O-])cc1Oc1cccc2c1CCCC2 [4-Nitro-3-(5,6,7,8-tetrahydro-1-naphthyloxy)pyridine-N-oxide]
inhibition at 10000 µM (porcine pancreatic PLA2; [6]): 38%

O=[N+]([O-])c1cc[n+]([O-])cc1Nc1cccc2ccccc12 [N-(1-Naphthyl)-4-nitro-3-pyridinamine-N-oxide]
TPAEE, ear edema [3]: -40%

C[C@]12CCC(=O)C=C1CC[C@@H]1[C@@H]2[C@@H](O)C[C@@]2(C)[C@H]1CC[C@]2(O)C(=O)CO [hydrocortisone, reference compound]
ED50 ([3]; Standard, TPA ear edema, mouse): 47 μg/ear

COc1ccc2c(c1)c(CC(=O)O)c(C)n2C(=O)c1ccc(Cl)cc1 [indomethacin]
ED50 ([1]; Standard, arachidonic acid ear edema, mouse): 1.5 mg/ear | ED50 [4]: 1.75 mg/animal | IC50 [5]: 38 µM

CCN(CC)CCCC(C)Nc1c2ccc(Cl)cc2nc2ccc(OC)cc12 (stereo not shown) [quinacrine, reference compound]
IC50 (porcine pancreatic PLA2): 350 µM
